The series can be described thus: Drug elution from polymer (UV-Vis). In kind it is physicochemical. The following applies: within the first three days; Nolvasan polymer, 2% chlorhexidine dose (50 mg), 2 mL PBS per 1 g polymer, 37° C. The protocol:
A Thermo Scientific GENESYS 10S UV-Vis spectrophotometer was used to quantify the release of various drugs from several polymers. First, the reference drug or drug solution was dissolved in an appropriate solvent. Typically, phosphate buffered saline (PBS), ethanol or dimethylsulfoxide (DMSO) were used as the solvent. Next, the optimal absorption peak for identifying and quantifying the drug was determined by performing a scan of the drug solution between 200 and 1000 nm. With the absorption peak selected, a reference curve was established by measuring the peak absorbance for various concentrations of the drug. […]
Elution samples were collected daily by decanting the PBS solution from the polymer. The volume of sample collected was recorded. […] The elution sample was analyzed by first diluting the sample in the appropriate solvent using analytical pipettes such that the measured absorbance was in the range determined by the reference curve. The dilution factor was recorded. The drug concentration was calculated from the measured absorbance via the reference curve and the dilution factor. The drug amount was calculated by multiplying the drug concentration with the sample volume. The percent elution for that day was calculated by dividing the drug amount by the total amount of drug administered. […]

Regarding `[H]/N=C(\N/C(=N/[H])NCCCCCCNC(=N)NC(=N)Nc1ccc(Cl)cc1)Nc1ccc(Cl)cc1` [chlorhexidine], the “chlorhexidine released from polymer” value was “Almost half”.

Source of the values: patent US20140271767A1, “BIOCOMPATIBLE HYDROGEL POLYMER MATRIX FOR DELIVERY OF CELLS” (Medicus Biosciences LLC, priority 2013, published 2014).
